According to publication PMC7553701 (Toxicological Sciences, 2020):
In brackets after ≈: the same amount, converted by molar mass. Entries after “also recorded” stand apart in the source; their conditions may differ. Read-outs that look alike come from different tables or passages of the source. Blank lines part the entries; values can stand above or below the molecule they belong to.

Tests used:
[1] = test system: rat liver; assay: BA-LRA score calculated from Open TG-GATEs Affymetrix GeneChip data; type: in vivo; settings: 600 mkd, 24 h, Affymetrix platform; ref Igarashi et al., 2015
[2] = test system: NRF2/Keap1 and NRF1 coregulated gene network in rat liver; settings: for BA-LRA score / BA-LRA outcome, day 1 single dose study: rat; for rat BA-LRA result: in vivo rat liver, threshold 0.22; for BA-LRA outcome, day 1 single dose study: day 1 single dose sample collection; for maximum daily dose (boundary) predicted from BA-LRA score: clinical daily dose
[3] = test system: NRF2; assay: HEK cell CYP450-dependent versus -independent NRF2 stabilization assay; type: cell-based, human; settings: for NRF2 protein level in noninduced cells: HEK293/CYP cells without Dox; for NRF2 protein level in cells expressing other CYP isoforms: HEK293 cells expressing the other 7 CYP isoforms; for NRF2 activation with and without CYP450 expression: HEK-CYP cell lines, [− Dox] and [+ Dox]; for NRF2 activation: HEK Cyp3A4 and parental cell lines, up to 90 µM
[4] = test system: human hepatocytes; assay: Covalent protein binding; type: in vitro ADME; settings: radiolabeled drug
[5] = test system: rat; assay: Histopathology, clinical chemistry and tolerability in short-term rat studies; type: in vivo; settings: oral gavage, high dose 500–750 mkd
[6] = test system: rat HepatoPac; assay: Urea synthesis in rat HepatoPac cultures; type: cell-based; settings: 9 days
[7] = biological target: Cyp3A4 (Homo sapiens, UniProt P08684, DEL224-224/T224I/V225I); assay: Cyp3A4 degradation in HEK Cyp3A4 cell line; type: cell-based; settings: up to 90 µM
[8] = test system: human HepatoPac; assay: Urea synthesis in human HepatoPac cultures; type: cell-based; settings: 9 days of exposure
[9] = test system: patients; settings: ref Hargreaves and Olesen, 2019, cited from earlier work
[10] = test system: human HepatoPac; settings: ref Hafey et al., unpublished data, cited from earlier work
[11] = test system: rat; assay: 6-month rat toxicology study; type: in vivo; settings: 6 months, highest dose tested
[12] = test system: Mouse; assay: 6-month mouse toxicology study; type: in vivo; settings: 6 months, highest dose tested
[13] = Clinical studies: liver safety and exposure; settings: human, in vivo, 900 mg
[14] = test system: NHP; assay: 9-month NHP toxicology study; type: in vivo; settings: 9 months, highest dose tested
[15] = test system: Dog; assay: 1-month dog toxicology study; type: in vivo; settings: high dose with excessive body weight loss
[16] = Biliary excretion; type: cell-based; settings: human HepatoPac cultures, plasma or biological fluid
[17] = test system: HepG2; settings: 24 h, HepG2 glucose-galactose shift; ref Xu et al., 2019; cited from earlier work
[18] = test system: bile salt export pump (BSEP); assay: Bile salt export pump; type: biochemical; settings: modeling a dose of 280 mg; ref Hafey et al., unpublished data
[19] = test system: rat hepatocyte micropatterned coculture model (HepatoPac); assay: In vitro BA-LRA in rat HepatoPac; type: cell-based; settings: 9 days, at 50 µM
[20] = test system: human HepatoPac; assay: In vitro BA-LRA in human HepatoPac; type: cell-based; settings: at 50 µM
[21] = test system: BSEP; settings: siRNA BSEP KD rat; ref Li et al., 2019; cited from earlier work

- BA-LRA score calculated from TG-GATEs data [1]: 0.32
- BA-LRA score ([2]; at 24 h (Figs. 2 and 3)): 0.54
- NRF2 protein level in noninduced cells ([3]; 6 h): not apparent
- NRF2 protein level in cells expressing other CYP isoforms [3]: not apparent
SMILES: CC(=O)Nc1ccc(O)cc1 [Acetaminophen]

SMILES: CC1(C)CC[C@]2(C(=O)O)CC[C@]3(C)[C@H](C(=O)C=C4[C@@]5(C)C=C(C#N)C(=O)C(C)(C)[C@@H]5CC[C@]43C)[C@@H]2C1 [Bardoxolone]
- NRF2 activation with and without CYP450 expression [3]: induced NRF2 activation in a similar fashion under both [− Dox] and [+ Dox] conditions

- covalent protein binding in human hepatocytes [4]: high CPB
SMILES: CN/C(=N/CCSCc1nc[nH]c1C)NC#N [Cimetidine]

SMILES: Clc1ccccc1C(c1ccccc1)(c1ccccc1)n1ccnc1 [Clotrimazole]
- tolerability of high repeat daily doses [5]: not tolerated

- rat BA-LRA result [2]: significant BA-LRA signal
- BA-LRA outcome, day 1 single dose study [2]: BA-LRA positive
SMILES: CN1CCN(C2=Nc3cc(Cl)ccc3Nc3ccccc32)CC1 [Clozapine]

- urea synthesis [8]: lack of urea synthesis inhibition
- solubility [16]: 50 µM (≈ 27.9 µg/mL)
- maximum daily dose (boundary) predicted from BA-LRA score [2]: 300 mg
- BA-LRA score ([2]; 600 mkd × 4-day, median signature score): 0.34
SMILES: O=C(CN1C(=O)C2(CCCC2)NC[C@H]1c1cc(F)cc(F)c1)Nc1ccc2c(c1)C[C@@]1(C2)C(=O)Nc2ncccc21 [MK-3207]
- urea (mito fx) / urea synthesis [6]: lack of urea synthesis inhibition; also recorded: no effect on urea to 80 µM
- Cyp3A4 degradation [7]: clear dose-dependent effect on Cyp3A4 degradation
- incidence of subjects with ALT rises > 3-fold ULN ([9]; Phase 2, 2 weeks, daily doses ≤ 100 mg (2/197)): 1%
- patients with > 20-fold ALT rises ([9]; among the 5 patients dosed above 500 mg daily): 3
- biliary excretion of taurocholic acid ([10]; 50 µM): no significant impact
- Liver Findings [11]: No liver safety signal at Highest Dose tested
- Liver Findings [12]: No liver safety signal at Highest Dose tested
- AUC [13]: 60 µM·h
- Liver Findings [14]: No liver safety signal at Highest Dose tested
- Liver Findings [15]: Slight periportal vacuolation
- mitochondrial toxicity [17]: No evidence for mitochondrial toxicity
- NRF2 activation [3]: no CYP-dependent effect on NRF2 activation

SMILES: Cc1cnc(NC(=O)C2=C(O)c3ccccc3S(=O)(=O)N2C)s1 [Meloxicam]
- tolerability of high repeat daily doses [5]: not tolerated

SMILES: C/N=C(\S)NCCSCc1[nH]cnc1C [Metiamide]
- rat BA-LRA result [2]: did not show a significant rat liver BA-LRA signal

SMILES: Cc1cc2c(s1)Nc1ccccc1N=C2N1CCN(C)CC1 [Olanzapine]
- tolerability of high repeat daily doses [5]: not tolerated
- BA-LRA outcome, day 1 single dose study [2]: InsfT

- NRF2 activation with and without CYP450 expression [3]: gave similar results
SMILES: Cc1c(-c2cnccn2)ssc1=S [Oltipraz, oltipraz]

- NRF2 activation with and without CYP450 expression [3]: gave similar results
SMILES: COc1ccc2[nH]c([S+]([O-])Cc3ncc(C)c(OC)c3C)nc2c1 (stereo not drawn) [Omeprazole]

SMILES: C[S+]([O-])CCCCN=C=S (stereo not drawn) [Sulforaphane, sulforaphane]
- NRF2 activation with and without CYP450 expression [3]: gave similar results

- covalent protein binding in human hepatocytes [4]: high CPB
SMILES: CNS(=O)(=O)Cc1ccc2[nH]cc(CCN(C)C)c2c1 [Sumatriptan]

SMILES: Nc1c2c(nc3ccccc13)CCCC2 [Tacrine]
- tolerability of high repeat daily doses [5]: not tolerated

SMILES: O=C(N[C@@H]1CC[C@@H](c2cccc(F)c2F)CN(CC(F)(F)F)C1=O)N1CCC(n2c(=O)[nH]c3ncccc32)CC1 [Telcagepant]
- exposure multiple of BSEP IC50 above calculated free unbound liver inlet Cmax [18]: 17.5 fold
- urea (mito fx) / urea synthesis [6]: no inhibition of urea synthesis
- urea (mito fx) / urea synthesis ([6]; listed as MK-0974/Telcagepant): no effect on urea to 100 µM
- Cyp3A4 degradation [7]: no effect was seen
- urea synthesis [8]: no inhibition of urea synthesis
- covalent protein binding in human hepatocytes [4]: high covalent binding
- Biliary Excretion Index IC50 [10]: 16 µM
- Liver Findings [11]: No liver safety signal at Highest Dose tested
- Liver Findings [12]: No liver safety signal at Highest Dose tested
- BA-LRA (in vitro) [19]: well exceeding the threshold of the assay
- BA-LRA (in vitro) ([19]; listed as MK-0974/Telcagepant): > 0.2
- Liver Findings [14]: No liver safety signal at Highest Dose tested
- tolerability of high repeat daily doses [5]: poorly tolerated
- mitochondrial toxicity [17]: unlikely mechanism of concern
- in vitro BA-LRA transcriptional response to CRM responsive genes [20]: well exceeding the threshold of the assay
- synergy expected for a BSEP inhibitor [21]: no evidence for synergy
- maximum daily dose (boundary) predicted from BA-LRA score [2]: < 600 mg
- BA-LRA score ([2]; 400 mkd × 4 days, peak score): 0.30
- NRF2 activation [3]: no effect was seen

- NRF2 protein level in noninduced cells ([3]; 6 h): not in noninduced cells
- NRF2 protein level in cells expressing other CYP isoforms [3]: no effects on the NRF2 protein level
- concentration at which NRF2 activation begins ([3]; induced [+Dox] CYP2C9 expressing HEK293 cells, 6 h): approximately 25 µM
SMILES: Clc1ccccc1CN1CCc2sccc2C1 [Ticlopidine]

SMILES: C[C@@H]1[C@H](c2ccccc2)C[C@H](NC(=O)c2cnc3c(c2)C[C@@]2(C3)C(=O)Nc3ncccc32)C(=O)N1CC(F)(F)F [Ubrogepant]
- clinical liver safety profile ([9]; clinical trials): superior clinical liver safety profile
